These results are taken from article PMC10385664, “Projection of Target Drug Particle Size in Oral Formulations Using the Refined Developability Classification System (rDCS)” (Pharmaceutics, 2023).

As usually defined, the Papp is the rate of passage across a membrane or cell layer, normalised by area and donor concentration.

For data set [1] the following is noted: cited from earlier work.
Data set [2] is described as follows: rDCS standard investigations: D/S ratio, SLAD and rDCS classification. The protocol: rDCS analysis was performed as described by Rosenberger et al.. […] The An can be calculated according to Equation (30):(30) An=DF·Peff/Rsi·Tsi
The rDCS classification according to the standard investigations was based on the D/S ratios, Peff and SLAD.

Data set [3] in a line: rDCS dissolution rate analysis (kdiss vs kperm) by Rosenberger et al. As to conditions: for kdiss: based on IDR, standard particle size 100 µm. The text has this:
Rosenberger et al. published an equation for kdiss based on the intrinsic dissolution rate (IDR) rather than CS (Equation (9)). Applying the hparticle assumption for larger particles with r0 ≥ 30 µm (hparticle = 30 µm) results in Equation (10). (9) kdiss=kIDR·IDR=3·hdisk/r0^2·ρ·IDR(r0<30 µm, hparticle=r0) (10) kdiss=kIDR·IDR=3·hdisk/r0·hparticle·ρ·IDR(r0≥30 µm, hparticle=30 µm)
In these equations kIDR is the IDR rate constant, which accounts for the solvent kinematic viscosity, rotational speed of the compressed disk, diffusion coefficient, particle size and API density. Therefore, kIDR corrects for differences in experimental conditions that influence the measured IDR value. The ABL thickness of the rotating disk (hdisk) can be estimated according to Equation (11):(11) hdisk=4.98·ν^1/6·D^1/3·RPM^−1/2 where ν is the solvent kinematic viscosity and the stirring rate is expressed as revolutions per minute (RPM). When kdiss is based on the IDR, two modified Dn equations result (Equations (12) and (13)):(12) Dn=3·hdisk/r0^2·ρ·IDR·Tsi(r0<30 µm, hparticle=r0) (13) Dn=3·hdisk/r0·hparticle·ρ·IDR·Tsi(r0≥30 µm, hparticle=30 µm)
The rDCS dissolution rate analysis was conducted according to Rosenberger et al.. For this, kdiss based on the IDR for a standard particle size of 100 µm was calculated (Equation (15)) and compared to kperm (Equation (10)). The kinematic viscosity of the medium (0.00696 cm^2/s), aqueous diffusion coefficient (predicted with ADMET Predictor version 9), stirring rate (100 rpm), initial particle size (100 µm), API density (predicted with ACD/Labs Release 2021.1.2), and measured IDR were used to calculate kdiss. Predicted diffusion coefficients and API densities can be found in Supplementary Materials. The estimated Peff, degree of flatness (1.7) and small intestinal radius (2 cm) were used for the calculation of kperm.

Data set [4] is described as follows: Caco-2 permeability assay (pH 6.5/7.4 gradient, ± elacridar). As to conditions: human; for recovery at 120 min, 10 µM: Caco-2. On the procedure:
(§1) In vitro permeability studies were performed at Cyprotex Discovery Ltd. (Macclesfield, UK) using a high-throughput Caco-2 permeability assay. Permeability at 37 °C was assessed from the apical to basolateral side (A⟹B) and in opposite direction (B⟹A) applying a pH gradient with pH 6.5 in the apical and pH 7.4 in the basolateral compartment (Hanks Balanced Salt Solution, HBSS). After an incubation of 120 min, samples were diluted for analysis via liquid chromatography coupled with tandem mass spectrometry (LC-MS/MS). […] Experiments were performed in absence and presence of the P-glycoprotein (P-gp) inhibitor elacridar (10 µM) to study transporter-mediated efflux effects. The dosing solutions contained the API (10 µM) in HBSS, and DMSO in a concentration of ≤1% v/v. Lucifer yellow (100 µM) was included as fluorescent integrity marker. Further experimental details are provided in Supplementary Materials.
(§2) The apparent permeability coefficients (Papp) were calculated according to Equation (27):(27) Papp=dQ/dt/C0·A where dQ/dt is the permeation rate of the API across the cell monolayer, C0 is the starting concentration of the API in the dosing solution and A is the surface area of the cell monolayer. The efflux ratios (ERs) were calculated from the B⟹A and A⟹B Papp values to estimate whether P-gp mediated efflux was involved in the transport of the APIs. The mass balance (% recovery) was calculated from the sum of the API recovered from the acceptor and donor compartments at the end of the experiment, divided by the initial donor amount.
(§3) Table S6. Gradient of the UPLC method for analysis of lemborexant.
(§4) Table S7. Gradient of the UPLC method for analysis of istradefylline.
(§5) S.2.5. rDCS Standard Investigations: Caco‐2 permeability studies
(§6) Caco‐2 cells were obtained from the American Type Culture Collection (ATCC, Manassas, VA, USA) and used between passage numbers 40 to 60. The cells were seeded onto Millipore Multiscreen Transwell plates at a density of 1 x 10^5 cells/cm2 and cultured in Dulbeccoʹs Modified Eagleʹs Medium (DMEM). The medium was changed every two or three days. Ce l l culture was carried out at 37 °C in an atmosphere of 5 % CO2 with a relative humidity of 95 %. The permeability assay was performed on day 20.
(§7) In vitro permeability was assessed wit h a high‐throughput Caco‐2 permeability assay. The assay was prepared by rinsing apical and basolateral monolayer surfaces twice with Hanks Balanced Salt Solution (HBSS) at the desired pH and 37 °C. Subsequently, cells in the apical and basolateral compartments were incubated with HBSS at the desired pH for 40 min. A pH gradient with pH 6.5 in the apical compartment and pH 7.4 in the basolateral compartment was applied. Dosing solutions containing the API (10 μ M) were prepared by diluting a concentrated API solution in DMS O with HBSS. The final DMSO concentration was ≤ 1% v/v. Lucifer yellow (100 μM) was included in the dosing solution as fluorescent integrity marker. For the assessment of the permeability from the apical to basolateral side (A⟹B), HBSS in the apical compartment was replaced with the dosing solution. The apical inserts were placed into a companion plat e containing fresh buffer with 1% v/ v DMSO. For the assessment of the permeability from the basolateral to […]
(§8) apical side (B⟹A), HBSS was removed from the companion plate and replaced with the solution of drug in HBSS. Fresh HBSS was added to the apical insert, which was then placed into the companion plate.
(§9) Experiments were performed in absence and presence of the P‐glycoprotein (P‐gp) inhibitor elacridar (10 μM) to study transporter‐mediated efflux effects. In those experiments, elacridar was included in both compartments during the equilibration time and assay. The starting concentration (C0) was confirmed by sampling from the dosing solution immediately before dosing into the cell pl ates. After incubation of 120 minutes, the apical inserts and companion plates were separated for sampling from both compartments.

Another data set relates to P-gp. The data set is described as above. As to conditions: human, Caco-2, with P-gp inhibitor elacridar 10 µM. The protocol: as §1, §2, §3, §4, §5, §6, §7, §8, §9
[5] abbreviates: healthy male subjects, oral suspension 40 mg [14C]istradefylline.
[6] abbreviates: from estimated Peff, DF 1.7, Rsi 2 cm.
[7] abbreviates: Caco-2, Papp(A⟹B), Caco-2, 10 µM, apical pH 6.5 / basolateral pH 7.4, 120 min, without inhibitor.
[8] abbreviates: Caco-2, Papp(B⟹A), Caco-2, without inhibitor.
[9] abbreviates: Caco-2, with elacridar 10 µM, Papp(A⟹B) + inhibitor.
The mark [10] stands for this setting: Caco-2, with elacridar 10 µM, Papp(B⟹A) + inhibitor.
The mark [11] stands for this setting: human mass-balance study, 10 mg [14C]lemborexant.

Consider `CCn1c(=O)c2c(nc(/C=C/c3ccc(OC)c(OC)c3)n2C)n(CC)c1=O` [Istradefylline, istradefylline], for which the “administered radioactivity recovered in feces” value in data set [1] (setting [5]) was 48.0 ± 13.4%. In addition, the “administered radioactivity recovered in urine” value in data set [1] (setting [5]) is recorded as 38.9 ± 10.7%. The “SLAD (solubility-limited absorbable dose)” value in data set [2] is listed as 8.50 mg. The molecule also registered a kdiss in data set [3] of 2.73e-05 min⁻¹. The kperm in data set [3] (setting [6]) is 0.0238 min⁻¹. For the same molecule, in data set [4], the recovery at 120 min, 10 µM is > 85%. Besides, the Papp at 120 min, 10 µM in data set [4] (setting [7]) came out at 30.2 ± 1.2 ×10⁻⁶ cm/s; in data set [4] (setting [8]), 28.3 ± 16 ×10⁻⁶ cm/s; in the data set on P-gp (setting [9]), 31.2 ± 1.1 ×10⁻⁶ cm/s; in the data set with P-gp (setting [10]), 43.7 ± 18.5 ×10⁻⁶ cm/s.
As for `Cc1ncc(OC[C@@]2(c3cccc(F)c3)C[C@H]2C(=O)Nc2ccc(F)cn2)c(C)n1` [Lemborexant, lemborexant], in data set [1] (healthy adults, single oral doses 1 to 10 mg), the median tmax entry is recorded as “approximately 1 h”. The “dose recovered unchanged in feces” value in data set [1] (setting [11]) is “about 13%”. In addition, the “fraction of oral dose absorbed (Fa)” value in data set [1] (setting [11]) is reported as 87%. The exposure versus dose entry in data set [1] (range 1 to 10 mg) is recorded as “increase in a dose-proportional manner”. For the same molecule, the “SLAD (solubility-limited absorbable dose)” value in data set [2] worked out at 49.6 mg. The molecule also yielded a kdiss in data set [3] of 0.00018 min⁻¹. The kperm in data set [3] (setting [6]) is 0.0214 min⁻¹. Further, the recovery at 120 min, 10 µM in data set [4] is > 74%. In addition, the Papp at 120 min, 10 µM in data set [4] (setting [7]) is 26.7 ± 1.2 ×10⁻⁶ cm/s; in data set [4] (setting [8]), 41.8 ± 1.2 ×10⁻⁶ cm/s; in the data set with P-gp (Caco-2, Papp(A⟹B) + inhibitor), 24.2 ± 0.7 ×10⁻⁶ cm/s; in the data set with P-gp (Caco-2, Papp(B⟹A) + inhibitor), 39 ± 0.4 ×10⁻⁶ cm/s.
With `C[C@@H](c1ncncc1F)[C@](O)(Cn1cncn1)c1ccc(F)cc1F` [Voriconazole, voriconazole], the oral bioavailability in data set [1] (healthy volunteers, 200 mg or 400 mg oral) is on record as ≥ 85%. Further, the “exposure (AUC and Cmax) versus dose” value in data set [1] (high single oral doses of 800, 1200 and 1600 mg) was “increased proportionally with dose”. Also, the “SLAD (solubility-limited absorbable dose)” value in data set [2] is 1810 mg. For the same molecule, the “kdiss for r = 100 µm” value in data set [3] (Excel template) was determined as 0.00756 min⁻¹. For the same molecule, the kperm in data set [3] (Excel template) was 0.02193 min⁻¹; in data set [3] (setting [6]), 0.0219 min⁻¹. This molecule showed a kdiss in data set [3] of 0.00756 min⁻¹. Also, the recovery at 120 min, 10 µM in data set [4] was > 87%. Also, the Papp at 120 min, 10 µM in data set [4] (setting [7]) was 27.3 ± 1.7 ×10⁻⁶ cm/s; in data set [4] (setting [8]) it was 43.5 ± 0.9 ×10⁻⁶ cm/s; in the data set with P-gp (setting [9]), 24 ± 1 ×10⁻⁶ cm/s; in the data set on P-gp (setting [10]), 40.4 ± 1.1 ×10⁻⁶ cm/s.
